Data taken from patent US10533231B2, “Artificial bioluminescent enzyme” (NATIONAL INSTITUTE OF ADVANCED INDUSTRIAL SCIENCE AND …, priority 2012, dated 2020).
Blank lines part the entries; values can stand above or below the molecule they belong to.

Assays:
[1] = molecular target: estrogen receptor (ER LBD) (Homo sapiens, UniProt P03372); conditions: 10^−5 M, 20 minutes, COS-7 cells with pSimer-r2, C16 one-shot buffer
[2] = molecular target: T1, integrated-molecule-format bioluminescent probe with androgen receptor (Homo sapiens, UniProt P10275); experiment: Effect of adding halogen ions, androgen probe (Example 2-5); type: cell-based; conditions: about 100 mM
T1 construct: an androgen receptor (AR LED) was inserted therebetween; expressed in transfected cells; host or cells: COS-7
T1 sequence (P10275 669-900 limits assumed): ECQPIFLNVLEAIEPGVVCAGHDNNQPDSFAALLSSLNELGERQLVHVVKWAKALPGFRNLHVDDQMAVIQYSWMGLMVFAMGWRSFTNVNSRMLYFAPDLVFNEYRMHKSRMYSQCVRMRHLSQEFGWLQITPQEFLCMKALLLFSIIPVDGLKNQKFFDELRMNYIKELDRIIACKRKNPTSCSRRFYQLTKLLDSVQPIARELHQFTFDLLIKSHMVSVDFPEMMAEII
Method: After 16-hour incubation in a CO2 incubator, 50 μL of a C3 solution was added to each well to allow for cell lysis for 20 minutes.

[3] = system: artificial luciferase (ALuc); experiment: Search for assay buffer compatible with C3 (Example 2-2); type: cell-based; conditions: C3 lysis; 8- and 16-minute point
Method: After 16-hour incubation in a CO2 incubator, 50 μL of a C3 solution was added to each well to allow for cell lysis for 20 minutes. Substrate-containing assay buffers shown in FIG. 24 were individually added simultaneously (50 μL each) to the lysate, and the relative luminescence intensities were immediately measured with an LAS-4000 (Fujifilm). After the substrate-containing assay buffers were further added, the luminescence at the 8- and 16-minute point was measured to examine the luminescence stability.

[4] = Luminescent capsule probe, luminescence stability and intensity (Example 1-7); type: cell-based; conditions: localized in the endoplasmic reticulum
From the text: A “luminescent capsule” probe containing the artificial luciferase (ALuc) of the present invention in its frame structure was developed (FIG. 7). The basic molecular structure of the luminescent capsule of the present invention comprises an extracellular secretion signal (SP), ALuc, a suitable cargo protein (peptide), and a membrane localization signal. Because of the SP, the probe is first transferred to the endoplasmic reticulum, and then transferred from the endoplasmic reticulum to the plasma membrane. This probe is designed to finally localize in the plasma membrane by the function of MLS (FIG. 7 AB).
The luminescent capsule has the ability to localize a fluorescence protein (mPlum), other luciferases (RLuc8.6-535), and a peptide (DEVD sequence, etc.) in the plasma membrane. […] The luminescent reaction speed of the luminescent capsule after substrate injection was faster than those of other molecules (FIG. 7D). Further, the luminescent capsule containing a […] (SEQ ID NO: 19) was confirmed to have a different luminescent reaction speed according to the presence or absence of a cell death-inducing chemical substance (STS) (FIG. 7E). The luminescence stability of the luminescent capsule was also confirmed by using a microplate reader for luminescence measurement (FIG. 7F).

COS-7 cells [5] = experiment: Living cell imaging (Example 1-20); type: cell-based; conditions: HBSS buffer containing substrate
Method: (§1) First, COS-7 cells were cultured in a microslide produced by ibidi. After the cells were raised to a certain level, the following genes were transferred to the cells in the channels. Channel group 1: pcDNA3.1 plasmid having a gene encoding a luminescent enzyme derived from Renilla reniformis (RLuc8.6-535); Channel group 2: pcDNA3.1 plasmid having a gene encoding A16-KDEL; and Channel group 3: pcDNA3.1 plasmid having a gene encoding a luminescent capsule based on ALuc16 (i.e., A16-MLS).
After gene transfer, culturing was performed for another 16 hours. Immediately before imaging, the medium was substituted with an HBSS buffer containing a substrate, and the luminescence image obtained after the substitution was measured using an LAS-4000 (FujiFilm).

COS-7 cells [6] = experiment: Luminescence image of COS-7 cell lysate on microslide (Example 1-20); type: cell-based; conditions: Promega lysate and assay buffer
Method: as §1, with “Similarly,” for “First,”, “Cypridina luciferase;” for “a luminescent enzyme derived from Renilla reniformis (RLuc8.6-535);”, “A16” for “ALuc16”
After gene transfer, culturing was performed for another 16 hours. 20 minutes before imaging, 40 μL of a lysate buffer produced by Promega was added, and the resultant was allowed to stand for 20 minutes. Further, a substrate-containing assay buffer produced by Promega was added to the medium of each channel, and the luminescence image obtained after the addition was measured using an LAS-4000 (FujiFilm).

Sequence of estrogen receptor (ER LBD) (P03372 311-547 limits assumed, species assumed): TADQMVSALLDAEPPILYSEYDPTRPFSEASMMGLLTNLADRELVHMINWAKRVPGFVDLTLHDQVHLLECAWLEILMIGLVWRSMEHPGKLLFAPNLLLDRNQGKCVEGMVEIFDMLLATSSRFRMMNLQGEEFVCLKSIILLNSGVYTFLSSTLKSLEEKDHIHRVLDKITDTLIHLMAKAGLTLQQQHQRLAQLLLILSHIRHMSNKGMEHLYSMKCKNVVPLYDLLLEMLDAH

- luminescence higher than the background [1]: about 5 folds
Molecule: 4-hydroxytamoxifen [OHT]

- effect of halogen ion addition [2]: excellent results
Molecule: [Br-].[K+] [KBr]

The next lines start with the molecule.

Molecule: bovine serum albumin [BSA]
- luminescence stability with assay buffer [3]: the luminescence intensity and luminescence stability were poor

B1: A16-KDEL: ALuc16 with KDEL, localized in the endoplasmic reticulum, SEQ ID NO: 18 (protein)
chain: MMGIKVLFALICFALVQANPTENKDDIDIVGVEGKFGTTDLETDLFTIVEDMNVISRDTDVDANRADRGRRGKLPGKKLPLEVLKELEANAQKAGCTRGCLICLSHIKCTAKMKKWLPGRCESWEGDKETGQGGIGEAIVDIPEIPGFKDLEPMEQFIAQVDLCVDCTTGCLKGLANVKCSDLLKKWLPSRCATFASKIQAQVDKIKGAGGSKDEL
modifications: KDEL ER retention signal; Synthetic KDEL-linked ALuc16
- luminescence intensity [4]: poor luminescence intensity
- luminescence image of living cells (COS-7 cells [5]): strong luminescence image
- luminescence of cell lysate (COS-7 cells [6]): strong luminescence
